In patent US20250230171A1 (MOMA Therapeutics, Inc., priority 2023, published 2025):
Read-outs that look alike come from different tables or passages of the source.

Experiments:
[1] = test system: DLD1 BRCA2 (−/−) cells; assay: 7-day cell viability assay (CellTiter-Glo), DLD1 BRCA2 (−/−); format: cell-based, human; details: Homo sapiens, DLD-1, 168 h, n=2, read-out: Viability IC50 (uM) DLD1 BRCA2 null
Procedure: (§1) Cell lines DLD1 WT and DLD1 BRCA2 (−/−) (Horizon Discovery Cat No. HD PAR-008 and HD-105-007) were plated in 384-well culture plates at seeding densities of 100cells/50 ul/well and 200 cells/50 uL/well respectively. The seeding densities are pre-determined from the growth curve kinetics performed to ensure log linear phase of cell growth for these 2 cell lines. These assay plates are then placed in the incubator at 37° C., 5% CO2, relative humidity >90% for a few hours before addition of test compounds. Compounds are dispensed using the Tecan HPD300 or Echo based on the plate map in the appropriate wells of the 384-well plates. The cells are treated with nine-point dose response with 3-fold serial dilutions of test compounds starting at 10 uM top concentration. After addition of the test compounds, the plates are incubated at 37° C., 5% CO2, relative humidity >90% for 7 days. CellTiter-Glo (Promega Cat. No. G7573), ATP detection reagent is prepared according to manufacturer's specifications. Cell assay plates are removed from incubator and bring to room temperature (RT) by letting them sit at bench top for at least 15 min. Using the MultiDrop liquid handler or a multichannel pipette, 35 μL/well of CTG is added and the plates are then placed shakes for 5 seconds, RT.

[2] = test system: DLD1 WT cells; assay: 7-day cell viability assay (CellTiter-Glo), DLD1 parental (WT); format: cell-based, human; details: n=2
Procedure: as §1

[3] = biological target: biotinylated Avi-POLθ[2-894] (Homo sapiens (Human), UniProt O75417); assay: POLθ ATPase assay (ADP-Glo); details: n=2, read-out: Biochemical ATPase ADPGlo IC50
Chain of biotinylated Avi-POLθ[2-894] (O75417 2-894): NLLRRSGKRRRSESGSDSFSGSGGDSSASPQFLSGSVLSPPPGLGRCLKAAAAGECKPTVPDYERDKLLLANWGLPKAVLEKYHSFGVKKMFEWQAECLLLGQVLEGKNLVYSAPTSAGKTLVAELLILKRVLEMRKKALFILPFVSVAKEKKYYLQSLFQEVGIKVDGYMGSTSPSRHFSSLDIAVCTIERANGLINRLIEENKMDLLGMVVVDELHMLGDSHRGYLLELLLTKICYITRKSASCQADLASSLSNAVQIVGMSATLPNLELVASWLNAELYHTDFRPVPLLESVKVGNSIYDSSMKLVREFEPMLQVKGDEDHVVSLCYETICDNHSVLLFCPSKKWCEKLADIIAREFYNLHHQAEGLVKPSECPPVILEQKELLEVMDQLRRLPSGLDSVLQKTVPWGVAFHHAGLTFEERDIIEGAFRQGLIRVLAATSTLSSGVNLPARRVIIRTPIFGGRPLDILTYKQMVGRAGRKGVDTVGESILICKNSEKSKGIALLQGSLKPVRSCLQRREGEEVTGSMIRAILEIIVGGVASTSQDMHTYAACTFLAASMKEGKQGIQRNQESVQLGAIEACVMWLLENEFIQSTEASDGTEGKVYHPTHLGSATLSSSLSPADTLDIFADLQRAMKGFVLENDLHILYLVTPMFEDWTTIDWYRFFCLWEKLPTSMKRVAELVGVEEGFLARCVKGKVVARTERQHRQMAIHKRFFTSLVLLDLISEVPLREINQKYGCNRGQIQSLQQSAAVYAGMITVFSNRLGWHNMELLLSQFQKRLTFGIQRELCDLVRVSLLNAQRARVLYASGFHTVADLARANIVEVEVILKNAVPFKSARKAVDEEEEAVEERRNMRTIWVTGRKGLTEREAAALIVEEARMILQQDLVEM

[4] = Homo sapiens, DLD-1, 168 h, 7-day CellTiter-Glo

Row | Compound | IC50 ([1]; 7-day CellTiter-Glo) | IC50 [2, 4] | also measured
1 | COc1cnc(Cl)cc1-c1cc(C)ncc1C(=O)Nc1nc2c(s1)CN(C(=O)c1ccc(OC(F)F)cc1)C2 | 0.001 to 0.1 µM | ≥ 10 µM | –
2 | COc1cnc(Cl)cc1-c1cc(C)ncc1C(=O)Nc1nc2c(s1)CN(C(=O)c1nc(C)cnc1C)C2 | 0.1 to 0.25 µM | ≥ 10 µM | –
3 | COc1cnc(Cl)cc1-c1cc(C)ncc1C(=O)Nc1nc2c(s1)CN(C(=O)c1cc(C)nc3ccnn13)C2 | 0.001 to 0.1 µM | ≥ 10 µM | –
4 | COc1cnc(Cl)cc1-c1cc(C)ncc1C(=O)Nc1nc2c(s1)CN(C(=O)c1ccc(C)c(Cl)n1)C2 | 0.001 to 0.1 µM | ≥ 10 µM | –
5 | COc1cnc(Cl)cc1-c1cc(C)ncc1C(=O)Nc1nc2c(s1)CN(C(=O)c1nc(C(F)F)ccc1F)C2 | 0.001 to 0.1 µM | ≥ 10 µM | –
6 | COc1cnc(Cl)cc1-c1cc(C)ncc1C(=O)Nc1nc2c(s1)CN(C(=O)c1ncc(C(F)F)cc1C)C2 | 0.001 to 0.1 µM | ≥ 10 µM | –
7 | COc1cnc(Cl)cc1-c1cc(C)ncc1C(=O)Nc1nc2c(s1)CN(C(=O)c1cc(Cl)cnc1C)C2 | 0.001 to 0.1 µM | ≥ 10 µM | –
8 | COc1cnc(Cl)cc1-c1cc(C)ncc1C(=O)Nc1nc2c(s1)CN(C(=O)c1ccc(C(F)F)c(C)n1)C2 | 0.001 to 0.1 µM | ≥ 10 µM | –
9 | COc1cnc(Cl)cc1-c1cc(C)ncc1C(=O)Nc1nc2c(s1)CN(C(=O)c1nc(C(F)F)ccc1C)C2 | 0.001 to 0.1 µM | ≥ 10 µM | –
10 | COc1cnc(Cl)cc1-c1cc(C)ncc1C(=O)Nc1nc2c(s1)CN(C(=O)c1ncc(OC(F)F)cc1Cl)C2 | 0.1 to 0.25 µM | ≥ 10 µM | –
11 | COc1cnc(Cl)cc1-c1cc(C)ncc1C(=O)Nc1nc2c(s1)CN(C(=O)c1ccn3nccc3n1)C2 | 0.001 to 0.1 µM | ≥ 10 µM | –
12 | COc1cnc(Cl)cc1-c1cc(C)ncc1C(=O)Nc1nc2c(s1)CN(C(=O)c1ccc(C(F)F)c(Cl)n1)C2 | 0.001 to 0.1 µM | ≥ 10 µM | –
13 | COc1cnc(Cl)cc1-c1cc(C)ncc1C(=O)Nc1nc2c(s1)CN(C(=O)c1ccc(C(F)F)c(OC)n1)C2 | 0.001 to 0.1 µM | 5 to 10 µM | –
14 | COc1cnc(Cl)cc1-c1cc(C)ncc1C(=O)Nc1nc2c(s1)CN(C(=O)c1cnc(OC(F)F)cc1Cl)C2 | 0.001 to 0.1 µM | ≥ 10 µM | –
15 | COc1cnc(Cl)cc1-c1cc(C)ncc1C(=O)Nc1nc2c(s1)CN(C(=O)c1cnc(OC(F)F)cc1C)C2 | 0.001 to 0.1 µM | ≥ 10 µM | –
16 | COc1cnc(Cl)cc1-c1cc(C)ncc1C(=O)Nc1nc2c(s1)CN(C(=O)c1ncc(C(F)F)cc1F)C2 | 0.001 to 0.1 µM | ≥ 10 µM | –
17 | COc1cnc(Cl)cc1-c1cc(C)ncc1C(=O)Nc1nc2c(s1)CN(C(=O)c1ccc(C(C)(F)F)cn1)C2 | 0.001 to 0.1 µM | ≥ 10 µM | –
18 | COc1cnc(Cl)cc1-c1cc(C)ncc1C(=O)Nc1nc2c(s1)CN(C(=O)c1ncc(OC(F)F)cc1C)C2 | 0.001 to 0.1 µM | ≥ 10 µM | –
19 | COc1cnc(Cl)cc1-c1cc(C)ncc1C(=O)Nc1nc2c(s1)CN(C(=O)c1ccc(C#N)c(C)n1)C2 | 0.001 to 0.1 µM | ≥ 10 µM | –
20 | COc1ccc(C(F)F)c(C(=O)N2Cc3nc(NC(=O)c4cnc(C)cc4-c4cc(Cl)ncc4OC)sc3C2)n1 | 0.001 to 0.1 µM | ≥ 10 µM | –
21 | COc1cnc(Cl)cc1-c1cc(C)ncc1C(=O)Nc1nc2c(s1)CN(C(=O)c1cc(Cl)c(C(F)F)cn1)C2 | 0.001 to 0.1 µM | 5 to 10 µM | –

Row | Compound | IC50 ([1]; 7-day CellTiter-Glo) | IC50 [2, 4] | also measured
22 | COc1cnc(Cl)cc1-c1cc(C)ncc1C(=O)Nc1nc2c(s1)CN(C(=O)c1ncc(Cl)nc1C)C2 | 0.5 to 2 µM | ≥ 10 µM | –
23 | COc1cnc(Cl)cc1-c1cc(C)ncc1C(=O)Nc1nc2c(s1)CN(Cc1cccc(C(F)F)n1)C2 | 0.001 to 0.1 µM | ≥ 10 µM | –
24 | COc1cnc(Cl)cc1-c1cc(C)ncc1C(=O)Nc1nc2c(s1)CN(C(=O)c1nc(C)c(C(F)F)nc1C)C2 | 0.001 to 0.1 µM | ≥ 10 µM | –
25 | COc1cnc(Cl)cc1-c1cc(C)ncc1C(=O)Nc1nc2c(s1)CN(C(=O)c1nc(OC)c(Cl)nc1C)C2 | 0.001 to 0.1 µM | ≥ 10 µM | –
26 | COc1cnc(Cl)cc1-c1cc(C)ncc1C(=O)Nc1nc2c(s1)CN(C(=O)c1nc(OC)c(C(F)F)cc1C)C2 | 0.001 to 0.1 µM | ≥ 10 µM | –
27 | COc1cnc(Cl)cc1-c1cc(C)ncc1C(=O)Nc1nc2c(s1)CN(C(=O)c1nc(OC)c(Cl)cc1C)C2 | 0.001 to 0.1 µM | 5 to 10 µM | –
28 | COc1cnc(C(F)F)cc1-c1cc(C)ncc1C(=O)Nc1nc2c(s1)CN(C(=O)c1cccc(C(F)F)n1)C2 | 0.001 to 0.1 µM | ≥ 10 µM | –
29 | COc1cnc(Cl)cc1-c1cc(C)ncc1C(=O)Nc1nc2c(s1)CN(C(=O)c1ncc(C(F)F)c(C)n1)C2 | 0.001 to 0.1 µM | ≥ 10 µM | –
30 | COc1cnc(Cl)cc1-c1cc(C)ncc1C(=O)Nc1nc2c(s1)CN(C(=O)c1ccc(C(F)(F)F)c(C)n1)C2 | 0.001 to 0.1 µM | ≥ 10 µM | –
31 | COc1cnc(Cl)cc1-c1cc(C)ncc1C(=O)Nc1nc2c(s1)CN(C(=O)c1cnc(C(F)(F)F)c(C)n1)C2 | 0.001 to 0.1 µM | 0.5 to 2 µM | –
32 | COc1cnc(Cl)cc1-c1cc(C)ncc1C(=O)Nc1nc2c(s1)CN(C(=O)c1cc(C)c(C(F)(F)F)c(C)n1)C2 | 0.001 to 0.1 µM | ≥ 10 µM | –
33 | COc1cnc(Cl)cc1-c1cc(C)ncc1C(=O)Nc1nc2c(s1)CN(C(=O)c1cc(C)c(C(F)(F)F)nc1C)C2 | 0.001 to 0.1 µM | ≥ 10 µM | –
34 | 2′-Chloro-5′-methoxy-6-methyl-N-(5-(3-methylpyrazine-2-carbonyl)-5,6-dihydro-4H-pyrrolo[3,4-d]thiazol-2-yl)-[4,4′-bipyridine]-3-carboxamide [Example 412] | – | – | IC50 [3]: 1 to 15 nM; IC50 ([2]; 7-day viability): ≥ 10 µM
35 | 2′-chloro-5′-methoxy-6-methyl-N-(5-(thiazole-2-carbonyl)-5,6-dihydro-4H-pyrrolo[3,4-d]thiazol-2-yl)-[4,4′-bipyridine]-3-carboxamide [Example 608] | – | – | IC50 ([2]; 7-day CellTiter-Glo): ≥ 10 µM
36 | COc1cnc(Cl)cc1-c1cc(C)ncc1C(=O)Nc1nc2c(s1)CN(C(=O)[C@H]1C[C@@H](OC(F)(F)F)C1)C2 [Example 25, 2′-chloro-5′-methoxy-6-methyl-N-(5-((1s,3s)-3-(trifluoromethoxy)cyclobutane-1-carbonyl)-5,6-dihydro-4H-pyrrolo[3,4-d]thiazol-2-yl)-[4,4′-bipyridine]-3-carboxamide] | – | – | IC50 ([1]; 7-day viability): 0.001 to 0.1 µM; IC50 [3]: 1 to 15 nM
37 | COc1cnc(Cl)cc1-c1cc(C)ncc1C(=O)Nc1nc2c(s1)CN(C(=O)c1c3c(nn1C)CCC3)C2 [Example 54, 2′-chloro-5′-methoxy-6-methyl-N-(5-(2-methyl-2,4,5,6-tetrahydrocyclopenta[c]pyrazole-3-carbonyl)-5,6-dihydro-4H-pyrrolo[3,4-d]thiazol-2-yl)-[4,4′-bipyridine]-3-carboxamide] | – | – | IC50 ([1]; 7-day viability): 0.001 to 0.1 µM; IC50 [3]: 1 to 15 nM
38 | CCc1nn(C)c(C(=O)N2Cc3nc(NC(=O)c4cnc(C)cc4-c4cc(Cl)ncc4OC)sc3C2)c1Cl [Example 56, 2′-chloro-N-(5-(4-chloro-3-ethyl-1-methyl-1H-pyrazole-5-carbonyl)-5,6-dihydro-4H-pyrrolo[3,4-d]thiazol-2-yl)-5′-methoxy-6-methyl-[4,4′-bipyridine]-3-carboxamide] | – | – | IC50 ([1]; 7-day viability): 0.001 to 0.1 µM; IC50 [3]: 1 to 15 nM
39 | CCc1c(Cl)c(C(=O)N2Cc3nc(NC(=O)c4cnc(C)cc4-c4cc(Cl)ncc4OC)sc3C2)nn1C [Example 70, 2′-chloro-N-(5-(4-chloro-5-ethyl-1-methyl-1H-pyrazole-3-carbonyl)-5,6-dihydro-4H-pyrrolo[3,4-d]thiazol-2-yl)-5′-methoxy-6-methyl-[4,4′-bipyridine]-3-carboxamide] | – | – | IC50 ([1]; 7-day viability): 0.001 to 0.1 µM; IC50 [3]: 1 to 15 nM
40 | COc1cnc(Cl)cc1-c1cc(C)ncc1C(=O)Nc1nc2c(s1)CN(C(=O)c1nc(C(F)F)cnc1OC)C2 [Example 468] | 0.001 to 0.1 µM | – | IC50 ([3]; POLθ ATPase, ADP-Glo): 1 to 15 nM
41 | N-(5-(benzo[d]oxazole-2-carbonyl)-5,6-dihydro-4H-pyrrolo[3,4-d]thiazol-2-yl)-2′-chloro-5′-methoxy-6-methyl-[4,4′-bipyridine]-3-carboxamide [Example 615] | – | – | IC50 ([2]; 7-day CellTiter-Glo): ≥ 10 µM
